# Test results reported in US20230322785A1, “ADENOSINE A2A AND A2B RECEPTOR DUAL ANTAGONISTS FOR IMMUNO-ONCOLOGY” (Merck Sharp & Dohme LLC, priority 2020, published 2023).
# Molecular target: T1, human A2A adenosine receptor (Homo sapiens, UniProt P29274)
# T1 construct: expressed in transfected cells; host or cells: HEK293 or CHO cells
# Test: A2A binding affinity, Method (A): radioligand filtration binding with [3H]SCH58261
# Conditions: membranes of HEK293 or CHO cells expressing the human receptor
# Excerpt: Method (A) describes the procedure used to measure A2A binding affinity using radioligand binding. Method (B) describes the procedure used to measure A2A binding affinity using SPA technology. The method used to measure A2B binding affinity is also described below. The method used to determine the A2A IC50 value reported for each compound in the table is indicated next to the reported value. The A2B IC50 value measured using the A2B binding affinity assay is shown in the table next to the compound under the corresponding A2A value.
# The A2A receptor affinity binding assay measured the amount of binding of a tritiated ligand with high affinity for the A2A adenosine receptor to membranes made from HEK293 or CHO cells recombinantly expressing the human A2A adenosine receptor, in the presence of varying concentrations of a compound of the invention. The data were generated using either filtration binding or a homogenous scintillation proximity assay (SPA).
# Method (A): Measurement of A2A Binding Affinity Using Radioligand Binding
# 148 µL (5 µg/mL) membranes (Perkin Elmer, Cat. No. RBHA2aM400UA) and 2 µL compounds of the invention to be tested (test compound) were transferred to individual wells of a 96-well polypropylene assay plate and incubated for 15 to 30 min at room temperature. [^3H] SCH58261 ((7-(2-phenylethyl)-5-amino-2-(2-furyl)-pyrazolo-[4,3-e]-1,2,4-triazolo[1,5-c]pyrimidine)) was diluted in assay buffer (50 mM Tris pH 7.4, 10 mM MgCl2, 0.005% Tween20) to a concentration of 4 nM and 50 µL transferred to each well of the assay plate. To define total and non-specific binding, wells containing 1% DMSO and 1 µM ZM241385 (Tocris Bioscience, Cat. No. 1036) respectively, were also included. The assay plate was incubated at room temperature for 60 min with agitation. Using a FilterMate Harvester® (Perkin Elmer), the contents of the assay plate were filtered through a UniFilter-96® PEI coated plate (Perkin Elmer Cat. No. 6005274 or 6005277). Filtering was achieved by aspirating the contents of the assay plate for 5 sec, then washing and aspirating the contents three times with ice-cooled wash buffer (50 mM Tris-HCl pH 7.4, 150 mM NaCl) and allowing the vacuum manifold to dry the plate for 30 sec. The filter plate was incubated for at least 1 h at 55° C. and allowed to dry. The bottom of the filter plate was sealed with backing tape. 40 µL Ultima Gold™ (Perkin Elmer, Cat. No. 6013329) was added to each well of the filter plate and the top of the plate was sealed with TopSeal-A PLUS® clear plate seal (Perkin Elmer, Cat. No. 6050185). The plate was incubated for at least 20 min, and then the amount of radioactivity remaining in each well was determined using a TopCount® (Perkin Elmer) scintillation counter. After normalization to total and non-specific binding, the percent effect at each compound concentration was calculated. The plot of percent effect versus the log of compound concentration was analyzed electronically using a 4-parameter logistic fit based on the Levenberg-Marquardt algorithm to generate IC50 values.
# T1 sequence (P29274 whole entry): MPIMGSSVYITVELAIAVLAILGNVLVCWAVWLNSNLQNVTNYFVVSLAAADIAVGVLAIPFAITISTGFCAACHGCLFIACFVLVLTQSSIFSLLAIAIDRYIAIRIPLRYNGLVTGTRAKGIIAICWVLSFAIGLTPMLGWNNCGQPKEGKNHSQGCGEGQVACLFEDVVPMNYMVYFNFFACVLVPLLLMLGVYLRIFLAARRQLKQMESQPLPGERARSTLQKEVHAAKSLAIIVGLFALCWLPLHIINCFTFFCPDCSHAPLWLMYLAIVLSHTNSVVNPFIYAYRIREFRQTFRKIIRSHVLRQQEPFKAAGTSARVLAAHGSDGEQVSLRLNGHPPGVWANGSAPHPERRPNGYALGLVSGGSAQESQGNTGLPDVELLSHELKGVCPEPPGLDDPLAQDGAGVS
row,SMILES,IC50
1,"COc1cccc2c1nc(N)n1nc(CNC3CCc4c(nnn4C4CC(F)(F)C4)C3)nc21 (single isomer, unassigned) [Example 11.2A, (S or R)-2-(((1-(3,3-difluorocyclobutyl)-4,5,6,7-tetrahydro-1H-benzo[d][1,2,3]triazol-5-yl)amino)methyl)-7-methoxy-[1,2,4]triazolo[1,5-c]quinazolin-5-amine]",0.6 nM
2,COc1cccc2c1nc(N)n1nc(CNC(=O)c3c(C)cc(C(C)(C)O)cc3C)nc21 [Entry 1.3],10.2 nM
3,"COc1cccc2c1nc(N)n1nc(CNC(=O)c3ccc(C(C)(O)C(F)(F)F)cc3)nc21 (single isomer, unassigned) [Example 2.7A, (S or R)-N-((5-amino-7-methoxy-[1,2,4]triazolo[1,5-c]quinazolin-2-yl)methyl)-4-(1,1,1-trifluoro-2-hydroxypropan-2-yl)benzamide]",0.3 nM
4,"COc1cccc2c1nc(N)n1nc(CNC(=O)c3ccc(C(C)(O)C(F)(F)F)cc3)nc21 (single isomer, unassigned) [Example 2.7B, (R or S)-N-((5-amino-7-methoxy-[1,2,4]triazolo[1,5-c]quinazolin-2-yl)methyl)-4-(1,1,1-trifluoro-2-hydroxypropan-2-yl)benzamide]",0.5 nM
5,"COc1cccc2c1nc(N)n1nc(CNC3CCc4c(nnn4C4CC(F)(F)C4)C3)nc21 (single isomer, unassigned) [Example 11.2B, (R or S)-2-(((1-(3,3-difluorocyclobutyl)-4,5,6,7-tetrahydro-1H-benzo[d][1,2,3]triazol-5-yl)amino)methyl)-7-methoxy-[1,2,4]triazolo[1,5-c]quinazolin-5-amine]",3.4 nM
6,"COc1cccc2c1nc(N)n1nc(CN(C)C(=O)c3ccc(C(C)(C)O)cc3)nc21 [Example 1.2, N-((5-amino-7-methoxy-[1,2,4]triazolo[1,5-c]quinazolin-2-yl)methyl)-4-(2-hydroxypropan-2-yl)-N-methylbenzamide]",0.3 nM
7,"COc1cc(F)cc2c1nc(N)n1nc(CNC(c3ccc(C(C)(C)O)cc3)C(F)(F)F)nc21 (single isomer, unassigned) [Example 25.3A, (S or R)-2-(4-(1-(((5-amino-9-fluoro-7-methoxy-[1,2,4]triazolo[1,5-c]quinazolin-2-yl)methyl)amino)-2,2,2-trifluoroethyl)phenyl)propan-2-ol]",19.3 nM
8,"COc1cc(F)cc2c1nc(N)n1nc(CNC(c3ccc(C(C)(C)O)cc3)C(F)(F)F)nc21 (single isomer, unassigned) [Example 25.3B, (R or S)-2-(4-(1-(((5-amino-9-fluoro-7-methoxy-[1,2,4]triazolo[1,5-c]quinazolin-2-yl)methyl)amino)-2,2,2-trifluoroethyl)phenyl)propan-2-ol]",29.2 nM

# Results, then the molecule that gave them:
row,IC50,SMILES
1,3.7 nM,"COc1cccc2c1nc(N)n1nc(CN3CC(n4cccn4)C3)nc21 [Example 11.12, 2-((3-(1H-pyrazol-1-yl)azetidin-1-yl)methyl)-7-methoxy-[1,2,4]triazolo[1,5-c]quinazolin-5-amine]"
2,1.4 nM,"COc1cccc2c1nc(N)n1nc(CNCc3ccc(S(N)(=O)=O)cc3)nc21 [Example 11.10, 4-((((5-amino-7-methoxy-[1,2,4]triazolo[1,5-c]quinazolin-2-yl)methyl)amino)methyl)benzenesulfonamide]"
3,2.5 nM,"COc1cccc2c1nc(N)n1nc(CN(C)Cc3ccc(S(N)(=O)=O)cc3)nc21 [Example 9.2, 4-((((5-amino-7-methoxy-[1,2,4]triazolo[1,5-c]quinazolin-2-yl)methyl)(methyl)amino)methyl)benzenesulfonamide]"
4,4.2 nM,"COc1cccc2c1nc(N)n1nc(CCNc3cnn(C)c3)nc21 [Example 23.2, 7-methoxy-2-(2-((1-methyl-1H-pyrazol-4-yl)amino)ethyl)-[1,2,4]triazolo[1,5-c]quinazolin-5-amine]"
5,1.4 nM,"COc1cccc2c1nc(N)n1nc(CNC(=O)c3ccc(C(C)(C)O)cn3)nc21 [Example 4.2, N-((5-amino-7-methoxy-[1,2,4]triazolo[1,5-c]quinazolin-2-yl)methyl)-5-(2-hydroxypropan-2-yl)picolinamide]"
6,11.1 nM,"COc1cc(F)cc2c1nc(N)n1nc(CNC(=O)c3c(F)cc(C(C)(C)O)cc3F)nc21 [Example 3.4, N-((5-amino-9-fluoro-7-methoxy-[1,2,4]triazolo[1,5-c]quinazolin-2-yl)methyl)-2,6-difluoro-4-(2-hydroxypropan-2-yl)benzamide]"
7,9.1 nM,"COc1cccc2c1nc(N)n1nc(CN3CC(c4ccncc4)C3)nc21 [Example 11.14, 7-methoxy-2-((3-(pyridin-4-yl)azetidin-1-yl)methyl)-[1,2,4]triazolo[1,5-c]quinazolin-5-amine]"
8,0.9 nM,"COc1cccc2c1nc(N)n1nc(CCN(C)c3cnn(C)c3)nc21 [Example 24.4, 7-methoxy-2-(2-(methyl(1-methyl-1H-pyrazol-4-yl)amino)ethyl)-[1,2,4]triazolo[1,5-c]quinazolin-5-amine]"
9,26.5 nM,"COc1cc2nc(N)n3nc(CCNc4cnn(CC(C)(C)O)c4)nc3c2cc1F [Example 24.2, 1-(4-((2-(5-amino-9-fluoro-8-methoxy-[1,2,4]triazolo[1,5-c]quinazolin-2-yl)ethyl)amino)-1H-pyrazol-1-yl)-2-methylpropan-2-ol]"
10,1.1 nM,"COc1cc(F)cc2c1nc(N)n1nc(CNC(C)(C)c3ccc(C(C)(C)O)cc3)nc21 [Example 11.9, 2-(4-(2-(((5-amino-9-fluoro-7-methoxy-[1,2,4]triazolo[1,5-c]quinazolin-2-yl)methyl)amino)propan-2-yl)phenyl)propan-2-ol]"
11,0.3 nM,"COc1cccc2c1nc(N)n1nc(CNC(=O)c3ccc(C(O)(C(F)(F)F)C(F)(F)F)cc3)nc21 [Example 2.6, N-((5-amino-7-methoxy-[1,2,4]triazolo[1,5-c]quinazolin-2-yl)methyl)-4-(1,1,1,3,3,3-hexafluoro-2-hydroxypropan-2-yl)benzamide]"
12,2.5 nM,COc1cc(F)cc2c1nc(N)n1nc(CNC(=O)c3ccc(C(C)(C)O)cc3Cl)nc21 [Entry 3.5]
13,0.6 nM,"COc1cccc2c1nc(N)n1nc(CNC(=O)c3ccc(C(C)(C)O)cc3)nc21 [Example 2.1, N-((5-amino-7-methoxy-[1,2,4]triazolo[1,5-c]quinazolin-2-yl)methyl)-4-(2-hydroxypropan-2-yl)benzamide]"
14,1.5 nM,"COc1cccc2c1nc(N)n1nc(CNC(=O)c3ncc(C(C)(C)O)cc3Br)nc21 [Example 4.11, N-((5-amino-7-methoxy-[1,2,4]triazolo[1,5-c]quinazolin-2-yl)methyl)-3-bromo-5-(2-hydroxypropan-2-yl)picolinamide]"
15,6 nM,"COc1cccc2c1nc(N)n1nc(CN3CCO[C@@H](Cc4ccccc4)C3)nc21 [Example 8.1, (S)-2-((2-benzylmorpholino)methyl)-7-methoxy-[1,2,4]triazolo[1,5-c]quinazolin-5-amine]"
16,636 nM,"COc1cccc2c1nc(N)n1nc(CNC(=O)c3ccc(S(N)(=O)=O)cc3)nc21 [Example 4.10, N-((5-amino-7-methoxy-[1,2,4]triazolo[1,5-c]quinazolin-2-y1)methyl)-4-sulfamoylbenzamide]"
17,12.3 nM,"COc1cccc2c1nc(N)n1nc(CCNC34CC(C(C)(C)O)(C3)C4)nc21 [Example 22.2, 2-(3-((2-(5-amino-7-methoxy-[1,2,4]triazolo[1,5-c]quinazolin-2-yl)ethyl)amino)bicyclo[1.1.1]pentan-1-yl)propan-2-ol]"
18,6.4 nM,"COc1cc(F)cc2c1nc(N)n1nc(CCN3Cc4cnc(C(C)C)n4CC3=O)nc21 [Example 26.3, 7-(2-(5-amino-9-fluoro-7-methoxy-[1,2,4]triazolo[1,5-c]quinazolin-2-yl)ethyl)-3-isopropyl-7,8-dihydroimidazo[1,5-a]pyrazin-6(5H)-one]"
